Reference: US10209240B2, “Predicting human developmental toxicity of pharmaceuticals using human stem-like cells and metabolomic ratios” (STEMINA BIOMARKER DISCOVERY, INC., priority 2012, dated 2019)
Values belong to the compound of their own block, whether it stands above or below them.

Legend:
Humans = conditions: cited from earlier work; for Humans (known human developmental toxicity): training and test set; for Known Effect: validation and test set treatments of Example 2
WA09 hES cells [1] = conditions: for Teratogenicity Potential (μM) Cell Viability: human, 72 h
WA09 hES cells [2] = assay: Phase 2 targeted biomarker assay, ornithine/cystine ratio, 9-point dose response; conditions: for Teratogenicity Potential (μM) O/C Ratio: human, 72 h
How it was run: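 WA09 hES cells (≤ passage 40), plated as single cells at 100,000/well on Matrigel in mTeSR1 with 10 μM Y27632, dosed 24 h later with nine 3-fold dilutions, 0.04–300 μM, 0.1% DMSO, for 72 h. Final-24 h spent medium, spiked with 13C6-arginine and filtered (<10 kDa), analysed by LC-HRMS; viability by CellTiter-Fluor.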

Rabbit = conditions: training and test set; cited from earlier work
Rodent = conditions: cited from earlier work; for Rodent prediction: training and test set
[3] = tested on: mouse embryonic stem cell; conditions: training and test set; weak/moderate and strong teratogens both labeled teratogen; cited from earlier work
[4] = training set compounds; summarized from TERIS and Briggs et al. 2011; cited from earlier work

SMILES: NC(=O)N1c2ccccc2C=Cc2ccccc21 [Carbamazepine]
- Humans (known human developmental toxicity) (Humans): TER
- Known Effect (Humans): Ter
- Viability Prediction (WA09 hES cells [1]): NON
- Teratogenicity Potential (μM) Cell Viability (WA09 hES cells [1]): >300 µM
- O/C Ratio Prediction (WA09 hES cells [2]): TER
- Targeted Biomarker Assay prediction (WA09 hES cells [2]): TER
- Teratogenicity Potential (μM) O/C Ratio (WA09 hES cells [2]): 0.9 µM
- Rodent prediction (Rodent): TER
- mEST prediction [3]: TER^i
- Preclinical in vivo and known human developmental effects [4]: Craniofacial, central

SMILES: O=C1NC(=O)C(c2ccccc2)(c2ccccc2)N1 [Diphenylhydantoin]
- Humans (known human developmental toxicity) (Humans): TER
- Known Effect (Humans): Ter
- Viability Prediction (WA09 hES cells [1]): NON
- Teratogenicity Potential (μM) Cell Viability (WA09 hES cells [1]): 288.7 µM
- Classification by o/c ratio in the targeted biomarker assay (WA09 hES cells [2]): misclassified
- O/C Ratio Prediction (WA09 hES cells [2]): NON
- Targeted Biomarker Assay prediction (WA09 hES cells [2]): NON
- Teratogenicity Potential (μM) O/C Ratio (WA09 hES cells [2]): 263.3 µM
- Rabbit prediction (Rabbit): TER
- Rodent prediction (Rodent): TER
- mEST prediction [3]: TER^b,i
- Preclinical in vivo and known human developmental effects [4]: Craniofacial, limb,

SMILES: O=C1CCC(N2C(=O)c3ccccc3C2=O)C(=O)N1 (stereo not drawn) [Thalidomide]
- Humans (known human developmental toxicity) (Humans): TER
- Known Effect (Humans): Ter
- Viability Prediction (WA09 hES cells [1]): NON
- Teratogenicity Potential (μM) Cell Viability (WA09 hES cells [1]): >300 µM
- Change in the o/c ratio, also relative to cytotoxicity (WA09 hES cells [2]): change in the o/c ratio indicative of developmental toxicity in the absence of cytotoxicity
- O/C Ratio Prediction (WA09 hES cells [2]): TER
- Targeted Biomarker Assay prediction (WA09 hES cells [2]): TER
- Teratogenicity Potential (μM) O/C Ratio (WA09 hES cells [2]): 0.2 µM
- Rabbit prediction (Rabbit): TER
- Rodent developmental toxicity testing, result in words (Rodent; relation to maternal toxicity where stated): did not indicate the compound's teratogenic potential in humans
- Rodent prediction (Rodent): NON^a
- Preclinical in vivo and known human developmental effects [4]: Craniofacial,

The next lines start with results.

- O/C Ratio Prediction (WA09 hES cells [2]): TER
- Targeted Biomarker Assay prediction (WA09 hES cells [2]): TER
SMILES: CC1=C(/C=C/C(C)=C/C=C/C(C)=C\C(=O)O)C(C)(C)CCC1 [13-cis Retinoic Acid]
- Humans (known human developmental toxicity) (Humans): TER
- Known Effect (Humans): Ter
- Viability Prediction (WA09 hES cells [1]): NON
- Teratogenicity Potential (μM) Cell Viability (WA09 hES cells [1]): >300 µM
- Teratogenicity Potential (μM) O/C Ratio (WA09 hES cells [2]): 0.0007 µM
- Rabbit prediction (Rabbit): TER
- Rodent prediction (Rodent): TER
- mEST prediction [3]: TER^p
- Preclinical in vivo and known human developmental effects [4]: Craniofacial, limb, central

- O/C Ratio Prediction (WA09 hES cells [2]): TER
- Targeted Biomarker Assay prediction (WA09 hES cells [2]): TER
SMILES: CC1=C(/C=C/C(C)=C/C=C/C(C)=C/C(=O)O)C(C)(C)CCC1 [All-trans Retinoic Acid]
- Humans (known human developmental toxicity) (Humans): TER
- Known Effect (Humans): Ter
- Viability Prediction (WA09 hES cells [1]): NON
- Teratogenicity Potential (μM) Cell Viability (WA09 hES cells [1]): 114.5 µM
- Change in the o/c ratio, also relative to cytotoxicity (WA09 hES cells [2]): change in the o/c ratio indicative of developmental toxicity in the absence of cytotoxicity
- Teratogenicity Potential (μM) O/C Ratio (WA09 hES cells [2]): 0.00004 µM
- Rabbit prediction (Rabbit): TER
- Rodent prediction (Rodent): TER
- mEST prediction [3]: TER^b,p
- Preclinical in vivo and known human developmental effects [4]: Craniofacial, limb, central
